Reference: publication PMC7290078, “Agonist bias and agonist‐dependent antagonism at corticotrophin releasing factor receptors” (Pharmacology Research & Perspectives, 2020)
No end group written: not given here.

Legend:
CRF1 receptor (hCRF1α) = target: T1, CRF1 receptor (hCRF1α) (Homo sapiens, UniProt P34998); experiment: IP1 accumulation (IP-one Gq) in Cos7 cells transfected with hCRF1α, agonist stimulation; format: cell-based
T1 construct: host or cells: Cos7 cells, transient transfection (PEI), pcDNA3.0/3.1 vector
T1 sequence (P34998 24-415): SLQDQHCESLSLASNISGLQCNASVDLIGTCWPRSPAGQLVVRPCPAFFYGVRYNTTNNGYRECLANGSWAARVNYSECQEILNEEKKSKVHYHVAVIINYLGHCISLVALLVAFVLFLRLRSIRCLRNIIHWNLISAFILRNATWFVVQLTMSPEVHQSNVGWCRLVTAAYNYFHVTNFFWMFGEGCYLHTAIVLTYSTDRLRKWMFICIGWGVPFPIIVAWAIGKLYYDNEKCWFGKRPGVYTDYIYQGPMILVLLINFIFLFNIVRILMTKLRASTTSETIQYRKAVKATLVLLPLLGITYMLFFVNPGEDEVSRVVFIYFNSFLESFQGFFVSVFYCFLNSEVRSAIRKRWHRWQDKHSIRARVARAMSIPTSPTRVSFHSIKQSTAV
Text: Plasmids containing hCRF1α and hCRF2α (GenBank accession numbers AY457172 and AY449734) were obtained from the cDNA Resource Centre (Bloomsburg University) and are referred to as CRF1 and CRF2 in this manuscript. Hemagglutinin (HA) epitope‐tagged human Calcitonin (CT) receptor (CT(a) splice variant) and myc‐tagged human RAMP1 were used as described previously. ^27 HA‐tagged human calcitonin receptor‐like receptor (CLR), N‐terminal FLAG‐tagged human RAMP3 and N‐terminal myc‐tagged human RAMP3 were a gift from Professor David Poyner (Aston University) and Professor Patrick Sexton (Monash University), respectively. […]
Cos7, HEK‐293S, and HEK‐293T cells were cultured as described previously. ^28 , ^29 Cos7 cells were originally supplied by the ATCC to Associate Professor Nigel Birch (University of Auckland). […] For transfection, cells were counted (Countess CounterTM; Life Technologies) and plated at a density of 20 000 cells per well in 96‐well plates. […]
The IP‐one Gq assay kit (Cisbio) was used to quantify accumulated myo‐inositol‐1‐phosphate (IP1), a by‐product of IP3 produced after receptor‐mediated Gαq activation in Cos7 and HEK‐293S cells. […] Fifteen microliters of sample was then transferred to a 384‐well optiplate and read by an Envision plate reader (PerkinElmer). IP1 concentrations were calculated from a standard curve generated in duplicate. […]

CRF2 receptor (hCRF2α) = target: T2, CRF2 receptor (hCRF2α) (Homo sapiens, UniProt Q13324); experiment: ERK1/2 phosphorylation (AlphaLISA Surefire Ultra) in Cos7 cells transfected with hCRF2α; format: cell-based
T2 construct: host or cells: Cos7 cells, transient transfection (PEI), pcDNA3.0/3.1 vector
T2 sequence (Q13324 1-411): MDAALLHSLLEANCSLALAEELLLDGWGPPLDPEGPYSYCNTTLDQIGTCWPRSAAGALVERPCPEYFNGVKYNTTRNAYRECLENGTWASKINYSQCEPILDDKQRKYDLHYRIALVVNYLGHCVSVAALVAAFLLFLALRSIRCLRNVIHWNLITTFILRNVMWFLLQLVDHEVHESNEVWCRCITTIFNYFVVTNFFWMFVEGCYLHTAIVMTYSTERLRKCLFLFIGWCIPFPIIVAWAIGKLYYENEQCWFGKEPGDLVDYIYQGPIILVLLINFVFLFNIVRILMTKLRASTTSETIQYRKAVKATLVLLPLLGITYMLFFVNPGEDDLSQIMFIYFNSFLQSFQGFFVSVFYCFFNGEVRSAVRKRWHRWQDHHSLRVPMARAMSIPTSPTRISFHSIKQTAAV
Text: Plasmids containing hCRF1α and hCRF2α (GenBank accession numbers AY457172 and AY449734) were obtained from the cDNA Resource Centre (Bloomsburg University) and are referred to as CRF1 and CRF2 in this manuscript. Hemagglutinin (HA) epitope‐tagged human Calcitonin (CT) receptor (CT(a) splice variant) and myc‐tagged human RAMP1 were used as described previously. ^27 HA‐tagged human calcitonin receptor‐like receptor (CLR), N‐terminal FLAG‐tagged human RAMP3 and N‐terminal myc‐tagged human RAMP3 were a gift from Professor David Poyner (Aston University) and Professor Patrick Sexton (Monash University), respectively. N‐terminal FLAG‐tagged human RAMP2 was used as described previously. ^28 All receptors and RAMPs were cloned in pcDNA3.0 or pcDNA3.1 plasmid vectors. All plasmid inserts were sequenced at the Centre for Genomics, Proteomics and Metabolomics (University of Auckland) and the sequences were verified prior to use.
Cos7, HEK‐293S, and HEK‐293T cells were cultured as described previously. ^28 , ^29 Cos7 cells were originally supplied by the ATCC to Associate Professor Nigel Birch (University of Auckland). HEK‐293S cells were a gift from Professor David Poyner (Aston University) and HEK‐293T cells a gift from Professor John Taylor (University of Auckland). Briefly, all cell lines were cultured in Dulbecco's Modified Eagle Medium (DMEM) supplemented with 8% heat inactivated fetal bovine serum (FBS) and maintained in a humidified incubator at 37°C with 5% CO2. For transfection, cells were counted (Countess CounterTM; Life Technologies) and plated at a density of 20 000 cells per well in 96‐well plates. The cells were transiently transfected 48 hours prior to assaying using polyethylenimine (PEI), as described previously. ^28 , ^29 In all experiments a total of 0.25 μg DNA was transfected per well. In the majority of experiments 0.25 μg DNA of receptor‐containing plasmid or the pcDNA3.1 plasmid without an insert was used. For experiments involving RAMPs, 0.125 μg of receptor DNA and 0.125 μg of RAMP‐containing plasmid DNA were transfected to give a 1:1 ratio of receptor to RAMP. Where the RAMP or receptor were transfected alone, the ratio of DNA was made up with the pcDNA3.1 plasmid.
The AlphaLISA Surefire Ultra extracellular signal‐regulated kinase 1/2 (ERK1/2) phosphorylation (pERK1/2) assay kit (PerkinElmer Life and Analytical Sciences) was used to measure pERK1/2 in cell lysates after agonist stimulation. For these assays 20% FBS was used as a positive control. Following peptide stimulation at 37°C for 0‐30 minutes with 100 nmol/L agonist (time courses) or 7 minutes with media alone or 1 pmol/L to 1 µmol/L agonist, media was removed and 20 µL of lysis buffer added to each well. Plates were shaken at room temperature for 10 minutes. Each sample was then transferred to a 384‐well optiplate and pERK1/2 measurement performed as per the manufacturer's instructions. Samples were read using an Envision plate reader (PerkinElmer).
In all experiments the position of peptides and antagonists (pharmacology) or transfected receptors (ELISAs) on assay plates was randomized during each independent experiment, which are independent biological replicates. In all cases, duplicate, triplicate, or quadruplicate technical replicates were conducted for each independent experiment. For transfected cell experiments, each independent experiment involved plating cells from a distinct passage, separate transient transfection and separate signaling or ELISA assays, constituting experimental n. For ERK1/2 and IP1 signaling pathways, time‐course experiments were first conducted with a saturating concentration of UCN1 to determine the optimal time to conduct concentration‐response experiments. Concentration‐response experiments were then conducted with the same experimental design for cAMP, ERK1/2, and IP1 pathways. […] All group sizes were designed to be equal at n = 5 independent experiments.

Row | EC50 (CRF1 receptor (hCRF1α); IP1, hCRF1α, Cos7, 90 min at 37°C, 50 mmol/L LiCl, 1 pmol/L to 10 µmol/L agonist, mean ± SEM, n = 5) | EC50 (CRF2 receptor (hCRF2α); pERK1/2, hCRF2α, Cos7, 7 min at 37°C, 1 pmol/L to 1 µmol/L agonist, mean ± SEM, n = 5) | ability to produce pERK1/2, comparison of peptides (CRF2 receptor (hCRF2α); CRF2 receptor) | concentration‐dependent increase in pERK1/2 (CRF2 receptor (hCRF2α); CRF2 receptor) | Hill slope (CRF2 receptor (hCRF2α); pERK1/2, CRF2 receptor) | Δlog(τ/K A) (relative efficacy) (CRF2 receptor (hCRF2α); pERK1/2, hCRF2α, reference agonist UCN1, mean ± SEM, n = 5) | ΔΔlog(τ/K A) (signaling bias) (CRF2 receptor (hCRF2α); pERK1/2 relative to cAMP, hCRF2α, reference agonist UCN1, mean ± SEM, n = 5) | Substance | concentration‐dependent increase in IP1 accumulation (CRF1 receptor (hCRF1α); CRF1 receptor)
1 | 7.76 nM | 5.62 nM | – | – | – | – | – | DNPSLSIDLTFHLLRTLLELARTQSQRERAEQNRIIFDSV-NH2 [UCN1] | –
2 | – | – | no significant difference | concentration‐dependent increases | 0.23 | −0.19 ± 0.42 | 0.36 ± 0.46 | IVLSLDVPIGLLQILLEQARARAAREQATTNARILARVGHC-NH2 (C-terminus assumed) [UCN2] | not UCN2 and UCN3 exhibited a concentration‐dependent increase
